Test results as given in patent US20060229433A1, “Modified antiviral peptides with increased activity and cell membrane affinity” (priority 2003, published 2006).
Values joined by “and” are separate entries in the source; they are usually repeats but may differ in a detail not shown here. Identical values can stand only once. Peptide text beside a SMILES is read from it.

Columns and labels:
Format in all cases: cell-based
[1] = tested on: HIV-1 NDK; experiment: HIV-1 infection of C8166 cells (syncytia formation, p24 ELISA) with HIV-1 NDK; parameters: key to syncitia formed, Day 4 / syncitia formed, Day 5 / syncitia formed, Day 6 / syncitia formed, Day 7: ++, +, (+), (+)− and − represent decreasing numbers of syncitia formed; ++, +, (+), (+)− and − represent decreasing numbers of syncitia formed; ++, +, (+), (+)− and − represent decreasing numbers of syncitia formed; ++, +, (+), (+)− and − represent decreasing numbers of syncitia formed; ++, +, (+), (+)− and − represent decreasing numbers of syncitia formed; settings: for P 24: P 24 after Day 7
Procedure, shortened: (§1)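 C8166 T-cells were preincubated with peptide for 1 h at 37 °C, then exposed for 1 h to HIV-1 at 1000 TCID50/ml, washed, and cultured with peptide kept present throughout, with medium replaced at day 4. Infection was scored by syncytia formation and by supernatant p24 ELISA, with at least two runs in duplicate.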

[2] = tested on: HIV-1 NL 4-3; experiment: HIV-1 infection of C8166 cells (syncytia formation, p24 ELISA) with HIV-1 NL 4-3; parameters: key to syncitia formed, Day 4 / syncitia formed, Day 5 / syncitia formed, Day 6 / syncitia formed, Day 7: ++, +, (+), (+)− and − represent decreasing numbers of syncitia formed; ++, +, (+), (+)− and − represent decreasing numbers of syncitia formed; ++, +, (+), (+)− and − represent decreasing numbers of syncitia formed; ++, +, (+), (+)− and − represent decreasing numbers of syncitia formed; ++, +, (+), (+)− and − represent decreasing numbers of syncitia formed
Procedure, shortened: as §1

[3] = tested on: HIV-1 NL 4-3; experiment: as above; parameters: key: ++, +, (+), (+)− and − represent decreasing numbers of syncitia formed; ++, +, (+), (+)− and − represent decreasing numbers of syncitia formed; ++, +, (+), (+)− and − represent decreasing numbers of syncitia formed; ++, +, (+), (+)− and − represent decreasing numbers of syncitia formed; ++, +, (+), (+)− and − represent decreasing numbers of syncitia formed; settings: Table 6
Procedure, shortened: as §1

[4] = C8166 cells, HIV-1 subtype B NL 4-3, Table 9, two lines = tested twice, 8 days apart

N=C(N)NCCC[C@H](NC(=O)CNC(=O)[C@@H]1CCCN1C(=O)CN)C(=O)O [GPGR, reference compound] (H-GPGR-OH; N-terminus and C-terminus assumed)
500 nM: IC50 ([1]; HIV 1 NDK, Table 10)
++/T: syncitia formed, Day 7 ([1]; 0.005 μM) | Day 7 syncitia formed ([2]; 0.005 μM, Table 6)
21810 pg/mL and 23870 pg/mL: P 24 ([1]; 0.1 μM)
23810 pg/mL: P 24 ([1]; 0.005 μM) | P 24 ([1]; 0.01 μM) | P 24 ([1]; 0.05 μM) | P 24 ([2]; 0.01 μM, P 24 after Day 7, C8166 cells) | P 24 ([2]; Day 7, 0.005 μM, Table 6) | P 24 ([2]; Day 7, 0.01 μM, Table 6)
60 nM and 100 nM: IC50 [2, 4]
5 µM and >5 µM: IC100 [2, 4]
152 pg/mL: P 24 ([2]; 5 μM, P 24 after Day 7, C8166 cells)
>5 µM: IC100 ([1]; HIV 1 NDK, Table 10)
5810 pg/mL and 10110 pg/mL: P 24 ([2]; Day 7, 0.1 μM, Table 6)
9870 pg/mL and 13890 pg/mL: P 24 ([1]; 1 μM)
2507 pg/mL and 2840 pg/mL: P 24 ([2]; Day 7, 0.5 μM, Table 6)
++: syncitia formed, Day 6 ([1]; 0.005 μM) | syncitia formed, Day 6 ([1]; 0.01 μM) | syncitia formed, Day 7 ([1]; 0.01 μM) | syncitia formed, Day 6 ([1]; 0.05 μM) | syncitia formed, Day 7 ([1]; 0.05 μM) | syncitia formed, Day 6 ([1]; 0.1 μM) | syncitia formed, Day 7 ([1]; 0.1 μM) | syncitia formed, Day 6 ([1]; 0.5 μM) | syncitia formed, Day 7 ([1]; 0.5 μM) | syncitia formed, Day 7 ([1]; 1 μM) | syncitia formed, Day 7 ([1]; 5 μM) | syncitia formed, Day 6 ([2]; 0.01 μM, C8166 cells) | syncitia formed, Day 7 ([2]; 0.01 μM, Day 7, C8166 cells) | syncitia formed, Day 7 ([2]; 0.05 μM, Day 7, C8166 cells) | Day 5 syncitia formed ([3]; 0.005 μM) | Day 6 syncitia formed ([3]; 0.005 μM) | Day 6 syncitia formed ([3]; 0.01 μM) | Day 7 syncitia formed ([3]; 0.01 μM) | Day 7 syncitia formed ([3]; 0.05 μM)
23000 pg/mL and 15810 pg/mL: P 24 ([2]; 0.5 μM, P 24 after Day 7, C8166 cells)
9810 pg/mL and 15856 pg/mL: P 24 ([1]; 0.5 μM)
+: syncitia formed, Day 5 ([1]; 0.005 μM) | syncitia formed, Day 5 ([1]; 0.01 μM) | syncitia formed, Day 5 ([1]; 0.05 μM) | syncitia formed, Day 6 ([1]; 1 μM) | syncitia formed, Day 6 ([1]; 5 μM) | syncitia formed, Day 5 ([2]; 0.01 μM, C8166 cells) | syncitia formed, Day 5 ([2]; 0.05 μM, C8166 cells) | syncitia formed, Day 6 ([2]; 0.05 μM, C8166 cells) | syncitia formed, Day 6 ([2]; 0.1 μM, C8166 cells) | syncitia formed, Day 7 ([2]; 0.1 μM, Day 7, C8166 cells) | syncitia formed, Day 7 ([2]; 0.5 μM, Day 7, C8166 cells) | Day 5 syncitia formed ([3]; 0.01 μM) | Day 5 syncitia formed ([3]; 0.05 μM) | Day 6 syncitia formed ([3]; 0.05 μM) | Day 6 syncitia formed ([3]; 0.1 μM) | Day 7 syncitia formed ([3]; 0.1 μM) | Day 7 syncitia formed ([3]; 0.5 μM) | Day 7 syncitia formed ([3]; 1 μM)
13810 pg/mL and 12980 pg/mL: P 24 ([2]; 0.05 μM, P 24 after Day 7, C8166 cells)
(+): syncitia formed, Day 5 ([1]; 0.1 μM) | syncitia formed, Day 5 ([1]; 0.5 μM) | syncitia formed, Day 4 ([2]; 0.01 μM, C8166 cells) | syncitia formed, Day 4 ([2]; 0.05 μM, C8166 cells) | syncitia formed, Day 5 ([2]; 0.1 μM, C8166 cells) | syncitia formed, Day 7 ([2]; 1 μM, Day 7, C8166 cells) | syncitia formed, Day 7 ([2]; 5 μM, Day 7, C8166 cells) | Day 5 syncitia formed ([3]; 0.1 μM)
−: syncitia formed, Day 4 ([1]; 0.005 μM) | syncitia formed, Day 4 ([1]; 0.01 μM) | syncitia formed, Day 4 ([1]; 0.05 μM) | syncitia formed, Day 4 ([1]; 0.1 μM) | syncitia formed, Day 4 ([1]; 0.5 μM) | syncitia formed, Day 4 ([1]; 1 μM) | syncitia formed, Day 5 ([1]; 1 μM) | syncitia formed, Day 4 ([1]; 5 μM) | syncitia formed, Day 5 ([1]; 5 μM) | syncitia formed, Day 4 ([2]; 0.1 μM, C8166 cells) | syncitia formed, Day 4 ([2]; 0.5 μM, C8166 cells) | syncitia formed, Day 5 ([2]; 0.5 μM, C8166 cells) | syncitia formed, Day 6 ([2]; 0.5 μM, C8166 cells) | syncitia formed, Day 4 ([2]; 1 μM, C8166 cells) | syncitia formed, Day 5 ([2]; 1 μM, C8166 cells) | syncitia formed, Day 6 ([2]; 1 μM, C8166 cells) | syncitia formed, Day 4 ([2]; 5 μM, C8166 cells) | syncitia formed, Day 5 ([2]; 5 μM, C8166 cells) | syncitia formed, Day 6 ([2]; 5 μM, C8166 cells) | Day 4 syncitia formed ([3]; 0.005 μM) | Day 4 syncitia formed ([3]; 0.01 μM) | Day 4 syncitia formed ([3]; 0.05 μM) | Day 4 syncitia formed ([3]; 0.1 μM) | Day 4 syncitia formed ([3]; 0.5 μM) | Day 5 syncitia formed ([3]; 0.5 μM) | Day 6 syncitia formed ([3]; 0.5 μM) | Day 4 syncitia formed ([3]; 1 μM) | Day 5 syncitia formed ([3]; 1 μM) | Day 6 syncitia formed ([3]; 1 μM) | Day 4 syncitia formed ([3]; 5 μM) | Day 5 syncitia formed ([3]; 5 μM) | Day 6 syncitia formed ([3]; 5 μM) | Day 7 syncitia formed ([3]; 5 μM)
316 pg/mL and 343 pg/mL: P 24 ([2]; 1 μM, P 24 after Day 7, C8166 cells)
